Measurements as given in patent publication US10118922B2 (Janssen Pharmaceutica NV, priority 2013, dated 2018).

Assays:
Human GPR120 short form = biological target: T1, Human GPR120 short form (Homo sapiens, UniProt Q5NUL3); assay: Human GPR120 calcium flux assay, Procedure Calcium A; assay type: cell-based; conditions: HEK-293 cells, FLIPR, 2500 cells/well; read-out: GPR120 Ca2+ Assay A EC50
T1 construct: expressed in transfected cells
T1 sequence (Q5NUL3 1-361): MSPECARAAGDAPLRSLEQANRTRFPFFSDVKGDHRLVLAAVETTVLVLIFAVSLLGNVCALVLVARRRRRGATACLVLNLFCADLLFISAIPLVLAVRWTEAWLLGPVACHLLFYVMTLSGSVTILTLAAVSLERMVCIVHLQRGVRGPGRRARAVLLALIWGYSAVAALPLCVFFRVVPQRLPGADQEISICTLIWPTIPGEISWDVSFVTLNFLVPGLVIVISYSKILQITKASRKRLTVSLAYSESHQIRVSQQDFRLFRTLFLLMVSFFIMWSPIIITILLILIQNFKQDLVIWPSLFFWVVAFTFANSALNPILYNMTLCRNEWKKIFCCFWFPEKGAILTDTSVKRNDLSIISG
Experimental: These cells are first loaded with the Ca^+2 sensitive dye, Fluo-4 NR. Upon stimulation, intracellular released Ca^+2 can bind to the dye and alter its fluorescence intensity. This increase in fluorescence signal, and thus the flux in intracellular [Ca^2+], is detected and quantitated by fluorescence imaging using a FLIPR reader. The effect of the agonist is measured as a function of concentration and used to calculate an EC50 based upon a response curve.
In this procedure 2500 cells/well were employed.
A Human GPR120 clone (Genbank accession number NM_001195755.1) was placed into the pcDNA3.1 mammalian expression vector carrying the neomycin resistance gene. A stable mammalian cell was generated by placing the above clone into a HEK293 background. […] Cells were split 2 times a week to keep the cells in the log-phase growth.
In preparation for the assay, HEK cells stably transfected with Human GPR120 (2.5K cells per well in 25 uL growth medium) were seeded into 384-well plates and then incubated overnight (37° C., 5% CO2). The next day, the media was changed to 20 μL assay buffer and the cell starved for 1 h at 37° C. The dye loading solution (2× dye) was prepared using 10 mL assay buffer, 100 μL of 250 mM probenecid, 1 bottle of Component A, and 20 μl of dye in DMSO. Twenty μL of the 2× dye loading buffer was then added to each well. The plates were incubated at 37° C. for 30 min, then at room temperature for an additional 15 minutes, before performing the assay on FLIPR.
The assay was performed on a FLIPR plate reader using the following parameters. Baseline was read for 10 seconds at 1 sec intervals. The program was set to transfer 10 μL of ligand from compound plate to cell plate after baseline reading. Aspiration was executed at: 10 μL/sec speed, 4.6 μL height; Dispensing was executed at: 30 μL/sec speed, 45 μL height. After compound addition, each well was read for 300 sec, with measurements collected at 1 sec intervals.
The kinetic data from the FLIPR was based upon a 5 minute window for data collection. The fluorescence of each sample well was used for individual calculations of a normalized RFU value, which was defined as maximum response minus the minimum response. […] The Fitting Equation was: Y=Bottom+(Top-Bottom)/(1+10^((Log EC50−X)*HillSlope)), where X is the log of the concentration and Y is the response.

[1] = biological target: T2, short form of the GPR120 receptor (Homo sapiens, UniProt Q5NUL3); assay: Human GPR120 DiscoveRx PathHunter beta-arrestin assay, Procedure β-arrestin B; assay type: cell-based; conditions: PathHunter CHO-K1 GPR120S β-Arrestin cells, 5000 cells/well; read-out: hGPR120 β-arrestin B EC50
T2 construct: host or cells: PathHunter CHO-K1 GPR120S β-Arrestin Cell Line
T2 sequence (Q5NUL3 1-361): T1 sequence (Q5NUL3 1-361)
Description: The binding of an agonist (medium/long chain fatty acids or small molecule agonists) to the G-protein-coupled receptor GPR120 activates phospholipase C, leading to release of intracellular Ca^+2 through the generation of inositol 1,4,5-trisphosphate (InsP3 or IP3). GPR120 activation can also trigger intracellular signaling via recruitment of Beta-Arrestin. In the present method, agonist-induced activation of the human GPR120 receptor is monitored through the use of PathHunter CHO-K1 GPR120 Beta-Arrestin Cell Line engineered by DiscoveRx, as detailed below. The cell lines are designed to co-express both the ProLink/Enzyme Donor (PK)-tagged GPCR and the Enzyme […] (EA)-tagged Beta-Arrestin fusion proteins. Upon GPR120 receptor stimulation/activation, the EA-tagged Beta-Arrestin portion is translocated to the tagged receptor, where the two enzyme fragments are brought within close proximity. Under these conditions, these fragments can interact and form an active Beta-gal enzyme complex through Enzyme Fragment Complementation (EFC). This active Beta-gal complex can enzymatically hydrolyse the substrate to produce a detectable light signal; therefore, activation as a function of agonist concentration can be expressed as an EC50 value to determine relative compound activities. This in vitro assay therefore serves to assess compound agonist activity of the GPR120.
In Procedure β-arrestin B the cells used were PathHunter CHO-K1 GPR120S β-Arrestin Cell Line, expressing the short form of the GPR120 receptor (Accession #NM 181745), with 5000 cells/well.
The selected CHO-K1 GPR120 β-Arrestin cells were cultured in Ham's F12 media supplemented with 10% fetal bovine serum (FBS), 1% Glutamine, 1×p/s, 800 μg/mL G418 and 300 μg/mL Hygromycin B (for selection). Cell stocks were maintained and grown in a sub-confluent state using standard cell culture procedures. The day before the experiment, the cells were harvested with non-enzymatic cell dissociation buffer and re-suspended in complete growth media at the desired concentration. A Corning 384-plate was then seeded with the proper number of cells in a volume of 25 μL, per well. The seeded plates were incubated overnight at 37° C.
On the day of the experiment, the Assay Buffer containing (a) HBSS with Ca^++ and Mg^++, (b) 20 mM HEPES, and (c) 0.1% BSA stabilizer (pH 7.4) was prepared. The growth medium was gently removed from the cell plates and 20 μL of Assay Buffer added to each well. The plate was then incubated at 37° C. for 60 min. Test compounds were serially diluted in Assay Buffer to desired concentrations (more particularly to one or more of the following μM concentrations: 25, 12.5, 6.25, 3.125, 1.5625, 0.78125, 0.390625, 0.1953125, 0.09765625, 0.048828125, 0.024414063, 0.012207031). Five μL of compound dilution was then added to each well and the plate incubated at 37° C. for 90 min. The detection reagents were prepared according to the manufacture's instruction. Twelve μL of the detection reagents were added to each well and the plate incubated at room temperature for 60 min.
The plates were read on an EnVision instrument, using Protocol name: Luminescence, Plate type: 384 Costar, Measurement height: 3 mm, Measurement time: 1 s, Aperture: 384 Plate aperture. The % activity relative to the positive control was calculated using the following equation:
The % Activity values were plotted versus the concentration of test compound and fitted to a sigmoidal dose-response curve with a Hill slope=1 (fixed value) using nonlinear regression with GraphPad Prism 5.0 to calculate the EC50 values. The Fitting Equation was: Y=Bottom+(Top-Bottom)/(1+10^((Log EC50−X)*HillSlope)), where X is the log of the concentration and Y is the response.

C57b16 mouse = C57b16 mouse OGTT; assay type: in vivo; conditions: dosed 30 min prior to glucose PO 3 g/kg
Experimental: (§1) Male, C57bl/6J Mice were ordered in at 8 weeks of age from Jackson Labs. Individual mice weighed anywhere in the range of 25-30 grams on study day. The mice were fasted, with removal of food occurring at 7 am on the morning of the study. Animals were moved into the room at 10:00 am, to give them time to acclimate. Glucose (insulin syringes) was drawn up either the night before or the morning of the study. Glucose was dosed (IP) at 1.5 g/kg at 7.5 ml/kg (20% glucose straight TEKNOVA, 250 ml sterile bottle w/ catalogue number G0525). Test compounds were kept spinning and were only drawn into the syringes prior to study commencement. Animals were bled via tail snip to determine basal glucose levels prior to dosing of treatments. An Ascensia BREEZE Blood Glucose Monitoring System by Bayer (using unique 10-test disks) was used for determining glucose levels. The bleeds started at approximately 12:45 pm and dosing started, at 1-minute intervals, immediately after. All groups were dosed 30 minutes prior to glucose administration at a dose volume of 10 ml/kg (the dose volume was calculated separately for each individual animal). Thirty minutes after the first dose animals were bled again for a second baseline, or T=0, and immediately dosed with glucose via an i.p. injection. The exact dose volume for glucose was also calculated separately for each individual animal. Glucose measurements were taken at −30 min prior to compound dose, at t=0 (immediately prior to glucose dose), and at 15, 30, 45, 60, 90 min post glucose dose.
(§2) Glucose values were entered into an Excel sheet and graphed in GraphPad Prism. The following were calculated from Prism: Change from −30 to 0 BSLN Glucose, Raw Glucose AUC −30 to 90 min, Delta Glucose AUC −30 to 90 min, Raw Glucose AUC 0 to 90 min, Delta Glucose AUC 0 to 90 min.
The assay design is the same as that described above for the C57b16 mouse IPGTT. The difference is that glucose was dosed PO at 3 g/kg, 7.5 ml/kg of 40% glucose.

C57bl/6J Mice = assay: GPR120 C57bl6 mouse IPGTT; assay type: in vivo; conditions: dosed 30 min prior to glucose IP 1.5 g/kg
Experimental: as §1, §2

| Structure (SMILES) | EC50 (Human GPR120 short form) [nM] | EC50 [1] [nM] | also measured |
| --- | --- | --- | --- |
| CC(C)Oc1cc(C(F)(F)F)sc1COc1c(F)cc(CCC(=O)O)cc1F [Cpd 16, 3-(3,5-Difluoro-4-{[3-(1-methylethoxy)-5-(trifluoromethyl)thiophen-2-yl]methoxy}phenyl)propanoic acid] | 382 | 1510 | – |
| COc1ccc(-c2csc(C(F)(F)F)c2COc2c(F)cc(CCCO)cc2F)cn1 [Cpd 38, 3-(3,5-difluoro-4-((4-(6-methoxypyridin-3-yl)-2-(trifluoromethyl)thiophen-3-yl)methoxy)phenyl)propan-1-ol] | – | – | C57 OGTT 3 mg/kg (C57b16 mouse): −44; C57 IPGTT 3 mg/kg (C57bl/6J Mice; 3 mg/kg): −9 |
| CCc1ccc(-c2nsc(C(F)(F)F)c2COc2c(F)cc(CCC(=O)O)cc2F)cc1 [Cpd 70, 3-(4-[[3-(4-ethylphenyl)-5-(trifluoromethyl)-1,2-thiazol-4-yl]methoxy]-3,5-difluorophenyl)propanoic acid] | – | – | C57 IPGTT 30 mg/kg (C57bl/6J Mice; 30 mg/kg): −88 |
| O=C(O)CCc1cc(F)c(OCc2c(-c3ccc(Cl)cc3)nsc2C(F)(F)F)c(F)c1 [Cpd 79, 3-(4-[[3-(4-chlorophenyl)-5-(trifluoromethyl)-1,2-thiazol-4-yl]methoxy]-3,5-difluorophenyl)propanoic acid] | – | – | C57 IPGTT 10 mg/kg (C57bl/6J Mice): −60 |
| OCCCc1ccc(OCc2c(Cl)nsc2-c2ccc(Cl)cc2)c(F)c1F [Cpd 102, 3-(4-((3-chloro-5-(4-chlorophenyl)isothiazol-4-yl)methoxy)-2,3-difluorophenyl)propan-1-ol] | – | – | C57 OGTT 3 mg/kg (C57b16 mouse): −32 |
| O=C(O)CCc1ccc(OCc2c(-c3ccc(Cl)cc3)nsc2C(F)(F)F)c(F)c1F [Cpd 106, 3-(4-[[3-(4-chlorophenyl)-5-(trifluoromethyl)-1,2-thiazol-4-yl]methoxy]-2,3-difluorophenyl)propanoic acid] | – | – | C57 IPGTT 10 mg/kg (C57bl/6J Mice): −34 |
| Cc1ccc(-c2snc(Cl)c2COc2c(F)cc(CCC(=O)O)c(F)c2F)c(F)c1 [Cpd 107, 3-(4-{[3-Chloro-5-(2-fluoro-4-methylphenyl)isothiazol-4-yl]methoxy}-2,3,5-trifluorophenyl)propanoic acid] | 89 | 118 | – |
| COc1ccc(-c2nsc(C(F)(F)F)c2COc2ccc(CCC(=O)O)c(C)c2C)c(F)c1 [Cpd 120, 3-(4-{[3-(2-Fluoro-4-methoxyphenyl)-5-(trifluoromethyl)isothiazol-4-yl]methoxy}-2,3-dimethylphenyl)propanoic acid] | 107 | 310 | – |
| O=C(O)CCc1ccc(OCc2c(C(F)(F)F)nsc2-c2ccc(Cl)cc2)c(Cl)c1Cl [Cpd 181, 3-(2,3-Dichloro-4-{[5-(4-chlorophenyl)-3-(trifluoromethyl)isothiazol-4-yl]methoxy}phenyl)propanoic acid] | 274 | 819 | – |
| Cc1ccc(-c2snc(C(C)C)c2COc2c(F)cc(CCC(=O)O)cc2F)c(F)c1 [Cpd 191] | 323 | – | – |
| Cc1c(CCC(=O)O)ccc(OCc2c(C(C)(C)C)nsc2C(F)(F)F)c1C [Cpd 198, 3-(4-{[3-tert-Butyl-5-(trifluoromethyl)isothiazol-4-yl]methoxy}-2,3-dimethylphenyl)propanoic acid] | 405 | 1940 | – |
| CCc1ccc(-c2cc(C(F)(F)F)sc2COc2ccc(CCC(=O)O)c(C)c2C)cc1 [Cpd 250, 3-(4-{[3-(4-Ethylphenyl)-5-(trifluoromethyl)thiophen-2-yl]methoxy}-2,3-dimethylphenyl)propanoic acid] | 3230 | – | – |
| CCc1ccc(-c2nsc(C(F)(F)F)c2COc2c(F)ccc(CC(C)CO)c2F)cc1 (stereo not shown) [Cpd 251, 3-(3-{[3-(4-Ethylphenyl)-5-(trifluoromethyl)isothiazol-4-yl]methoxy}-2,4-difluorophenyl)-2-methylpropan-1-ol] | > 5000 | – | – |
